Reference: patent US6197811A, “Cytokine production inhibitors” (Terragen Discovery Inc., priority 1998, dated 2001)

system: IL-1β production in human peripheral blood mononuclear cells (PBMC); test: LPS-induced IL-1β release from human peripheral blood mononuclear cells (PBMC), ELISA; type: cell-based; details: 1 ng/ml LPS, 18 hours at 37° C., IL-1β by ELISA
Method: IL-1 Release from Human Peripheral Blood Mononuclear Cells (PBMC)
Human peripheral blood mononuclear cells (PBMC) were separated from Buffy coats obtained from normal healthy donors on Lymphoprep. […] Cells were incubated for 18 hours at 37° C. with 5% CO2 and the cell culture supernatants harvested and stored at -70° C. Effects on the production of IL-1β were determined by using an ELISA.

Compared with `C/C=C/[C@@H]1OC(=O)C=C[C@H]1OC(=O)c1ccccc1` [Example 1, ((2S,3R)-3,6-Dihydro-6-oxo-(2E-prop-1-enyl-2H-pyran-3-yl)) benzoate], `C/C=C/[C@@H]1OC(=O)C=C[C@@H]1OC(=O)Cc1ccccc1` [Example 5h, ((2S,3S)-3,6-Dihydro-6-oxo-(2E-prop-1-enyl-2H-pyran-3-yl))phenylacetate] is 1.7-fold lower in IC50: 2400 nM for the first, 1400 nM for the second.

First: C/C=C/[C@@H]1OC(=O)C=C[C@H]1OC(=O)c1ccc(-c2ccccc2)cc1 [Example 1a, ((2S,3R)-3,6-Dihydro-6-oxo-(2E-prop-1-enyl-2H-pyran-3-yl))-4-biphenyl carboxylate]
Second: C/C=C/[C@@H]1OC(=O)C=C[C@@H]1OC(=O)c1ccc(-c2ccccc2)cc1 [Example 5b, ((2S,3S)-3,6-Dihydro-6-oxo-(2E-prop-1-enyl-2H-pyran-3-yl))-4-biphenylcarboxylate]
The IC50 of the first is higher: over 7500 nM for the first, 300 nM for the second.

First: C/C=C/[C@@H]1OC(=O)C=C[C@H]1OC(=O)c1ccc2c(c1)C(=O)c1ccccc1-2 [Example 1b, ((2S,3R)-3,6-Dihydro-6-oxo-(2E-prop-1-enyl-2H-pyran-3-yl))-9-oxo-9H-fluorene carboxylate]
Second: C/C=C/[C@@H]1OC(=O)C=C[C@@H]1OC(=O)c1ccc2c(c1)C(=O)c1ccccc1-2 [Example 5f, ((2S,3S)-3,6-Dihydro-6-oxo-(2E-prop-1-enyl-2H-pyran-3-yl))-9-oxo-9H-fluorene-2-carboxylate]
The IC50 of the first is 3.8-fold higher: 4500 nM for the first, 1200 nM for the second.

Going from `C/C=C/[C@@H]1OC(=O)C=C[C@H]1OC(=O)c1cccc2c1C(=O)c1ccccc1-2` [Example 1c] to `C/C=C/[C@@H]1OC(=O)C=C[C@@H]1OC(=O)c1cccc2c1C(=O)c1ccccc1-2` [Example 5e, ((2S,3S)-3,6-Dihydro-6-oxo-(2E-prop-1-enyl-2H-pyran-3-yl))-9-oxo-9H-fluorene carboxylate], the IC50 falls from 4000 nM to 130 nM (31-fold).

Going from `C/C=C/[C@H]1OC(=O)C=C[C@@H]1NCc1ccccc1` [Example 2a, (5S,6R)-5-benzylamino-6E-prop-1-ene-5,6-dihydro-2H-pyran-2-one] to `C/C=C/[C@H]1OC(=O)C=C[C@@H]1NCc1ccc(-c2ccccc2)cc1` [Example 2b, (5S,6R)-5-(4-biphenylmethylamino)-6E-prop-1-ene-5,6-dihydro-2H-pyran-2-one], the IC50 falls from 12000 nM to 6900 nM (1.7-fold).

Compared with `C/C=C/[C@H]1OC(=O)C=C[C@@H]1NCC1c2ccccc2-c2ccccc21` [Example 2c, (5S,6R)-5-(2-9H-fluorenemethylamino)-6E-prop-1-ene-5,6-dihydro-2H-pyran-2-one], `C/C=C/[C@@H]1OC(=O)C=C[C@H]1NC(=O)c1cccc2c1-c1ccccc1C2=O` [Example 3b, ((2S,3R)-3,6-Dihydro-6-oxo-(2E-prop-1-enyl-2H-pyran-3-yl))-9-oxo-9H-fluorene-4-amide] is 2.8-fold higher in IC50: 3600 nM for the first, 10000 nM for the second.

First: C/C=C/[C@@H]1OC(=O)C=C[C@H]1NC(=O)c1ccccc1 [Example 3, ((2S,3R)-3,6-Dihydro-6-oxo-(2E-prop-1-enyl-2H-pyran-3-yl)) phenylamide]
Second: C/C=C/[C@@H]1OC(=O)C=C[C@H]1NC(=O)c1ccc(-c2ccccc2)cc1 [Example 3a, ((2S,3R) -3,6-Dihydro-6-oxo-(2E-prop-1-enyl-2H-pyran-3-yl) )4-biphenylamide]
The IC50 of the first is 9.7-fold higher: 9700 nM for the first, 1000 nM for the second. The second is the more potent here.

Going from `C/C=C/[C@@H]1OC(=O)C=C[C@H]1NC(=O)c1ccc(-c2ccccc2)cc1` [Example 3c, ((2S,3R)-3,6-Dihydro-6-oxo-(2E-prop-1-enyl-2H-pyran-3-yl))-4-biphenylamide] to `C/C=C/[C@@H]1OC(=O)C=C[C@@H]1OC(=O)Cc1ccc(-c2ccccc2)cc1` [Example 5g, ((2S,3S)-3,6-Dihydro-6-oxo-(2E-prop-1-enyl-2H-pyran-3-yl))-4-biphenylacetate], the IC50 rises from 1300 nM to 13400 nM (10-fold).

First: C/C=C/[C@@H]1OC(=O)C=C[C@H]1NC(=O)c1cccc2c1-c1ccccc1C2=O [Example 3d, ((2S,3R)-3,6-Dihydro-6-oxo-(2E-prop-1-enyl-2H-pyran-3-yl))-9-oxo-9H-fluorene-4-amide]
Second: C/C=C/[C@@H]1OC(=O)C=C[C@@H]1OC(=O)c1cccc2c1Cc1ccccc1-2 [Example 5d, ((2S,3S)-3,6-Dihydro-6-oxo-(2E-prop-1-enyl-2H-pyran-3-yl))-9H-fluorenecarboxylate]
The IC50 of the first is 38-fold higher: 11300 nM for the first, 300 nM for the second.

Going from `C/C=C/[C@@H]1OC(=O)C=C[C@H]1OC(=O)/C=C/C(C)=C/[C@@H](C)CCCCCC` [Example 4, ((2S,3R)-3,6-Dihydro-6-oxo-(2E-prop-1-enyl-2H-pyran-3-yl))-(2E,4E)-4,6-dimethyldodecanoate] to `CCCCCC[C@H](C)/C=C(C)/C=C/C(=O)O[C@H]1C=CC(=O)O[C@H]1/C=C/C(=O)OCC` [Example 6, ((2S,3S)-3,6-Dihydro-6-oxo-(2E-3-oxo-3-ethoxyprop-1-enyl-2H-pyran-3-yl))-(2E,4E)-4,6-dimethyldodecadienoate], the IC50 rises from 4000 nM to 6000 nM (1.5-fold).

Going from `C/C=C/[C@@H]1OC(=O)C=C[C@@H]1OCOCCOC` [Example 4a, (2S,3S)-5-(2-Methoxy-ethoxymethoxy)-6-(2E-prop-1-enyl)-5,6-dihydro-2H-pyran-2-one] to `C/C=C/[C@@H]1OC(=O)C=C[C@@H]1OCc1ccccc1` [Example 4c, (2S,3S)-5-Benzyloxy-6-(2E-prop-1-enyl)-5,6-dihydro-2H-pyran-2-one], the IC50 falls from 8500 nM to 1200 nM (7.1-fold). The second is the more potent here.

First: C/C=C/[C@@H]1OC(=O)C=C[C@@H]1OCc1ccc(-c2ccccc2)cc1 [Example 4b, (2S,3S)-5-(4-Biphenylmethoxy)-6-(2E-prop-1-enyl)-5,6-dihydro-2H-pyran-2-one]
Second: C/C=C/[C@@H]1OC(=O)C=C[C@@H]1OC(=O)c1ccc(-c2ccc(CC)cc2)cc1 [Example 5c, ((2S,3S)-3,6-Dihydro-6-oxo-(2E-prop-1-enyl-2H-pyran-3-yl))-4'-ethyl-4-biphenylcarboxylate]
The IC50 of the first is 4-fold higher: 400 nM for the first, 100 nM for the second. The second is the more potent here.

Compared with `C/C=C/[C@@H]1OC(=O)C=C[C@@H]1OC(=O)/C=C/CCCCCCCCC` [Example 5, ((2S,3S)-3,6-Dihydro-6-oxo-(2E-prop-1-enyl-2H-pyran-3-yl))dodeca-2E-enoate], `C/C=C/[C@@H]1OC(=O)C=C[C@@H]1OC(=O)CCCCCCCCCCC` [Example 5l, ((2S,3S)-3,6-Dihydro-6-oxo-(2E-prop-1-enyl-2H-pyran-3-yl))dodecanoate] is 3-fold higher in IC50: 2800 nM for the first, 8400 nM for the second.

`C/C=C/[C@@H]1OC(=O)C=C[C@@H]1OC(=O)/C=C/c1ccco1` [Example 5a, ((2S,3S)-3,6-dihydro-6-oxo-(2E-prop-1-enyl-2H-yran-3-yl))-3-(2-furfuryl)acrylate] and `C/C=C/[C@@H]1OC(=O)C=C[C@@H]1OC(=O)/C=C/c1cccc(C)c1` [Example 5i, ((2S,3S)-3,6-Dihydro-6-oxo-(2E-prop-1-enyl-2H-pyran-3-yl))-3m-tolylacrylate] are within 1.5-fold of each other in IC50: 1200 nM for the first, 1000 nM for the second.

Compared with `C/C=C/[C@@H]1OC(=O)C=C[C@@H]1OC(=O)/C=C/c1ccc2ccccc2c1` [Example 5j, ((2S,3S)-3,6-Dihydro-6-oxo-(2E-prop-1-enyl-2H-pyran-3-yl))-3-(2-naphthyl)acrylate], `C/C=C/[C@@H]1OC(=O)C=C[C@@H]1OC(=O)c1ccc(CCCCC)cc1` [Example 5k, ((2S,3S)-3,6-Dihydro-6-oxo-(2E-prop-1-enyl-2H-pyran-3-yl))-4-pentylbenzoate] is 1.8-fold lower in IC50: 700 nM for the first, 400 nM for the second.

Going from `C/C=C/[C@@H]1OC(=O)C=C[C@@H]1OC(=O)CCCCCCCCCCCCC` [Example 5m, ((2S,3S)-3,6-Dihydro-6-oxo-(2E-prop-1-enyl-2H-20 pyran-3-yl))tetradodecanoate] to `CCCCCC[C@H](C)/C=C(C)/C=C/C(=O)O[C@H]1C=CC(=O)O[C@H]1/C=C/C(=O)OCCCC` [Example 6b, ((2S,3S)-3,6-Dihydro-6-oxo-(2E-3-oxo-3-butoxyprop-1-enyl)-2H-pyran-3-yl)-(2E,4E)-4,6-dimethyldodecadienoate], the IC50 falls from 5400 nM to 1400 nM (3.9-fold). The second is the more potent here.

Compared with `CCCCCC[C@H](C)/C=C(C)/C=C/C(=O)O[C@H]1C=CC(=O)O[C@H]1/C=C/C(=O)OCCC` [Example 6a, ((2S,3S)-3,6-Dihydro-6-oxo-(2E-3-oxo-3-propoxyprop-1-enyl)-2H-pyran-3-yl)-(2E,4E)-4,6-dimethyldodecadienoate], `CCCCCC[C@H](C)/C=C(C)/C=C/C(=O)O[C@H]1C=CC(=O)O[C@H]1/C=C/C(=O)NCc1ccccc1` [Example 6c, ((2S,3S)-3,6-Dihydro-6-oxo-(2E-3-oxo-3-benzylaminoprop-1-enyl)-2H-pyran-3-yl)-(2E,4E)-4,6-dimethyldodecadienoate] is higher in IC50: 1400 nM for the first, over 9000 nM for the second.
